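Cells were grown in 96-well plates and exposed to each compound for 48 hours at five concentrations; endpoints were interpolated linearly between bracketing concentrations, or set to the highest concentration if not reached. TGI marks complete inhibition of growth.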
Assays:
Experiment in all cases: NCI-60 cell line screen, 48 h
[1] = test system: SNB-78 CNS
[2] = test system: OVCAR-4 ovarian
[3] = test system: MOLT-4 leukemia
[4] = test system: A549 NSCLC
[5] = test system: LOX IMVI melanoma
[6] = test system: HL-60(TB) leukemia
[7] = test system: SNB-75 CNS
[8] = test system: M14 melanoma
[9] = test system: XF 498 CNS
[10] = test system: U251 CNS
[11] = test system: UACC-62 melanoma
[12] = test system: OVCAR-8 ovarian
[13] = test system: COLO 205 colon
[14] = test system: K-562 leukemia
[15] = test system: DMS 114 small cell lung
[16] = test system: HOP-92 NSCLC
[17] = test system: SK-MEL-2 melanoma
[18] = test system: LXFL 529 NSCLC
[19] = test system: CCRF-CEM leukemia
[20] = test system: M19-MEL melanoma
[21] = test system: NCI-H226 lung
[22] = test system: HOP-18 NSCLC
[23] = test system: KM20L2 colon
[24] = test system: OVCAR-3 ovarian
[25] = test system: SK-MEL-5 melanoma
[26] = test system: RPMI-8226 leukemia
[27] = test system: HCT-116 colon
[28] = test system: HOP-62 NSCLC
[29] = test system: UACC-257 melanoma
[30] = test system: EKVX NSCLC
[31] = test system: UO-31 renal
[32] = test system: NCI-H23 lung
[33] = test system: SN12C renal
[34] = test system: SW-620 colon
[35] = test system: SK-OV-3 ovarian
[36] = test system: SF-539 CNS
[37] = test system: 786-0 renal
[38] = test system: MALME-3M melanoma
[39] = test system: HCT-15 colon
[40] = test system: DMS 273 small cell lung
[41] = test system: SF-295 CNS
[42] = test system: SF-268 CNS
[43] = test system: SNB-19 CNS
[44] = test system: DLD-1 colon
[45] = test system: SR leukemia
[46] = test system: TK-10 renal
[47] = test system: CAKI-1 renal
[48] = test system: IGROV1 ovarian
[49] = test system: HT29 colon
[50] = test system: ACHN renal
[51] = test system: RXF 393 renal
[52] = test system: OVCAR-5 ovarian
[53] = test system: KM12 colon
[54] = test system: HCC-2998 colon
[55] = test system: NCI-H460 lung
[56] = test system: SK-MEL-28 melanoma
[57] = test system: A498 renal
[58] = test system: NCI-H522 lung
[59] = test system: RXF-631 renal

## CP1(=O)CCCCC1
[1]
  TGI: > 100 µM
[2]
  TGI: > 100 µM
[3]
  TGI: > 100 µM
[4]
  TGI: > 100 µM
[5]
  TGI: > 100 µM
[6]
  TGI: > 100 µM
[7]
  TGI: > 100 µM
[8]
  TGI: > 100 µM
[9]
  TGI: > 100 µM
[10]
  TGI: > 100 µM
[11]
  TGI: > 100 µM
[12]
  TGI: > 100 µM
[13]
  TGI: > 100 µM
[14]
  TGI: > 100 µM
[15]
  TGI: > 100 µM
[16]
  TGI: > 100 µM
[17]
  TGI: > 100 µM
[18]
  TGI: > 100 µM
[19]
  TGI: > 100 µM
[20]
  TGI: > 100 µM
[21]
  TGI: > 100 µM
[22]
  TGI: > 100 µM
[23]
  TGI: > 100 µM
[24]
  TGI: > 100 µM
[25]
  TGI: > 100 µM
[26]
  TGI: > 100 µM
[27]
  TGI: > 100 µM
[28]
  TGI: > 100 µM
[29]
  TGI: > 100 µM
[30]
  TGI: > 100 µM
[31]
  TGI: > 100 µM
[32]
  TGI: > 100 µM
[33]
  TGI: > 100 µM
[34]
  TGI: > 100 µM
[35]
  TGI: > 100 µM
[36]
  TGI: > 100 µM
[37]
  TGI: > 100 µM
[38]
  TGI: > 100 µM
[39]
  TGI: > 100 µM
[40]
  TGI: > 100 µM
[41]
  TGI: > 100 µM
[42]
  TGI: > 100 µM
[43]
  TGI: > 100 µM
[44]
  TGI: > 100 µM
[45]
  TGI: > 100 µM
[46]
  TGI: > 100 µM
[47]
  TGI: > 100 µM
[48]
  TGI: > 100 µM
[49]
  TGI: > 100 µM
[50]
  TGI: > 100 µM
[51]
  TGI: > 100 µM
[52]
  TGI: > 100 µM
[53]
  TGI: > 100 µM
[54]
  TGI: > 100 µM
[55]
  TGI: > 100 µM
[56]
  TGI: > 100 µM

## C/C(CC(=O)Nc1ccc([N+](=O)[O-])cc1)=N\NC(N)=O
[1]
  TGI: > 100 µM
[2]
  TGI: > 100 µM
[3]
  TGI: > 100 µM
[4]
  TGI: > 100 µM
[5]
  TGI: > 100 µM
[6]
  TGI: > 100 µM
[7]
  TGI: > 100 µM
[8]
  TGI: > 100 µM
[9]
  TGI: > 100 µM
[10]
  TGI: > 100 µM
[57]
  TGI: > 100 µM
[11]
  TGI: > 100 µM
[12]
  TGI: > 100 µM
[13]
  TGI: > 100 µM
[14]
  TGI: > 100 µM
[15]
  TGI: > 62.6 µM
[16]
  TGI: > 100 µM
[17]
  TGI: > 100 µM
[18]
  TGI: > 100 µM
[19]
  TGI: > 71.4 µM
[20]
  TGI: > 100 µM
[21]
  TGI: > 100 µM
[22]
  TGI: > 100 µM
[23]
  TGI: > 100 µM
[24]
  TGI: > 100 µM
[25]
  TGI: > 100 µM
[26]
  TGI: > 69.5 µM
[27]
  TGI: > 100 µM
[28]
  TGI: > 100 µM
[29]
  TGI: > 100 µM
[30]
  TGI: > 100 µM
[31]
  TGI: > 100 µM
[32]
  TGI: > 100 µM
[33]
  TGI: > 100 µM
[34]
  TGI: > 100 µM
[35]
  TGI: > 100 µM
[36]
  TGI: > 100 µM
[58]
  TGI: > 100 µM
[37]
  TGI: > 100 µM
[38]
  TGI: > 100 µM
[39]
  TGI: > 100 µM
[40]
  TGI: > 100 µM
[41]
  TGI: > 100 µM
[42]
  TGI: > 100 µM
[43]
  TGI: > 100 µM
[44]
  TGI: > 100 µM
[45]
  TGI: 45.8 µM
[46]
  TGI: > 100 µM
[47]
  TGI: > 100 µM
[48]
  TGI: > 100 µM
[49]
  TGI: > 100 µM
[50]
  TGI: > 100 µM
[51]
  TGI: > 100 µM
[52]
  TGI: > 100 µM
[53]
  TGI: > 100 µM
[54]
  TGI: > 100 µM
[55]
  TGI: > 100 µM
[56]
  TGI: > 100 µM

## C=Cc1ccc(C)[n+](C[Si](C)(C)O[Si](C)(C)C)c1
[1]
  TGI: > 100 µM
[2]
  TGI: > 100 µM
[3]
  TGI: > 100 µM
[4]
  TGI: > 100 µM
[5]
  TGI: > 100 µM
[7]
  TGI: > 100 µM
[8]
  TGI: > 100 µM
[10]
  TGI: > 100 µM
[11]
  TGI: > 100 µM
[12]
  TGI: > 100 µM
[13]
  TGI: > 100 µM
[14]
  TGI: > 100 µM
[15]
  TGI: > 100 µM
[17]
  TGI: > 100 µM
[18]
  TGI: > 100 µM
[19]
  TGI: > 100 µM
[21]
  TGI: > 100 µM
[23]
  TGI: > 100 µM
[59]
  TGI: > 100 µM
[24]
  TGI: > 100 µM
[25]
  TGI: > 100 µM
[26]
  TGI: > 100 µM
[27]
  TGI: > 100 µM
[28]
  TGI: > 100 µM
[29]
  TGI: > 100 µM
[30]
  TGI: > 100 µM
[31]
  TGI: > 100 µM
[32]
  TGI: > 100 µM
[33]
  TGI: > 100 µM
[34]
  TGI: > 100 µM
[35]
  TGI: > 100 µM
[36]
  TGI: > 100 µM
[58]
  TGI: > 100 µM
[37]
  TGI: > 100 µM
[38]
  TGI: > 100 µM
[39]
  TGI: > 100 µM
[40]
  TGI: > 100 µM
[41]
  TGI: > 100 µM
[42]
  TGI: > 100 µM
[43]
  TGI: > 100 µM
[44]
  TGI: > 100 µM
[45]
  TGI: > 100 µM
[47]
  TGI: > 100 µM
[48]
  TGI: > 100 µM
[49]
  TGI: > 100 µM
[50]
  TGI: > 100 µM
[52]
  TGI: > 100 µM
[53]
  TGI: > 100 µM
[54]
  TGI: > 100 µM
[56]
  TGI: > 100 µM

## O=C(Nc1ccc(Cl)cc1)c1cc2cc(N=Nc3ccccc3Cl)ccc2oc1=O
[1]
  TGI: 79.7 µM
[2]
  TGI: > 100 µM
[3]
  TGI: 10.1 µM
[4]
  TGI: > 100 µM
[6]
  TGI: 10.3 µM
[7]
  TGI: 72.5 µM
[8]
  TGI: 55 µM
[9]
  TGI: 67.1 µM
[10]
  TGI: 51 µM
[11]
  TGI: 26.6 µM
[12]
  TGI: 59 µM
[13]
  TGI: > 100 µM
[14]
  TGI: 23.6 µM
[15]
  TGI: 25 µM
[16]
  TGI: 38.8 µM
[17]
  TGI: 47 µM
[18]
  TGI: 32.5 µM
[19]
  TGI: 5.38 µM
[20]
  TGI: 53 µM
[21]
  TGI: 46.9 µM
[22]
  TGI: 96.9 µM
[23]
  TGI: 46.8 µM
[24]
  TGI: 75.6 µM
[25]
  TGI: 61.9 µM
[26]
  TGI: 30.3 µM
[27]
  TGI: 23.3 µM
[28]
  TGI: 61.9 µM
[29]
  TGI: 68.2 µM
[30]
  TGI: 57.5 µM
[31]
  TGI: 39.3 µM
[32]
  TGI: 34.5 µM
[33]
  TGI: 44.7 µM
[34]
  TGI: > 100 µM
[35]
  TGI: 84 µM
[36]
  TGI: 31.3 µM
[58]
  TGI: 53.2 µM
[38]
  TGI: 48.3 µM
[39]
  TGI: 24.1 µM
[41]
  TGI: 91.9 µM
[42]
  TGI: > 100 µM
[43]
  TGI: > 100 µM
[44]
  TGI: 32.2 µM
[45]
  TGI: 34.9 µM
[46]
  TGI: 89.4 µM
[47]
  TGI: > 100 µM
[48]
  TGI: 48.1 µM
[49]
  TGI: 29.6 µM
[50]
  TGI: > 100 µM
[51]
  TGI: > 100 µM
[52]
  TGI: 91.3 µM
[54]
  TGI: 41.2 µM
[55]
  TGI: > 100 µM
[56]
  TGI: 55.7 µM

Source: PubChem BioAssay (NCI)
